This is an account of results in publication PMC9217908, “Screening of commonly prescribed drugs for effects on the CAT1-mediated transport of L-arginine and arginine derivatives” (Amino Acids, 2022).

Assay [1] has as its target T1, CAT1 (cationic amino acid transporter 1, CAT1/SLC7A1) (Homo sapiens, UniProt P30825).
T1 construct: full-length human transporter stably transfected in HEK cells (HEK-CAT1); net uptake against HEK-VC vector control cells
As to the kind of experiment: inhibition of [3H]-L-homoarginine uptake in HEK-CAT1 cells. It is filed as cell-based. The note with it: read-out: % inhibition at 20 μM.

In assay [2] the target is T1, CAT1 (cationic amino acid transporter 1, CAT1/SLC7A1). As to the kind of experiment: cell-based. Conditions: HEK293, ADMA 1 uM as substrate; for inhibition at 20 µM: read-out: % Inhibition of ADMA uptake at 20 µM; for inhibition at 200 µM: read-out: % Inhibition of ADMA uptake at 200 µM. Also on record: species or system HEK-CAT1 (HEK293 stably transfected); Inhibition of net CAT1-mediated [3H]-ADMA (1 uM) uptake, 2.5 min, scintillation counting, vector control subtracted. The procedure, abridged: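 HEK cells expressing CAT1 and vector-control cells took up [^3H]-L-arginine for 5 min, or [^3H]-L-homoarginine or [^3H]-ADMA (1 μM) for 2.5 min, with or without drug at 20 or 200 µM. Net CAT1 uptake was CAT1 cells minus control cells, and inhibition (%) = 100 − V/V0×100. Negative values mean stimulation; n = 6–9.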

Assay [3] shares this target. Description: cell-based. Conditions: HEK293; L-homoarginine 1 uM as substrate; read-out: % Inhibition of L-homoarginine uptake at 200 µM. Also noted: species or system HEK-CAT1 (HEK293 stably transfected); Inhibition of net CAT1-mediated [3H]-L-homoarginine (1 uM) uptake, 2.5 min, scintillation counting, vector control subtracted. The procedure, abridged:
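HEK-CAT1 cells with HEK-VC vector controls; [3H]-L-homoarginine (1 μM) uptake over 2.5 min with or without test compound at 20 µM or 200 µM. Net CAT1 uptake (CAT1 minus VC) gives inhibition (%) = 100 – (V/V0 × 100). Negative values mean stimulated uptake; n = 6–9 from at least two independent experiments.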

The target is the same in assay [4]. Description: cell-based. Also on record: species or system HEK-CAT1 (HEK293 stably transfected); Inhibition of net CAT1-mediated [3H]-L-arginine (100 uM) uptake, 5 min, scintillation counting, vector control subtracted. Conditions: HEK293, L-arginine 100 uM as substrate; for inhibition at 20 µM: read-out: % Inhibition of L-arginine uptake at 20 µM; for inhibition at 200 µM: read-out: % Inhibition of L-arginine uptake at 200 µM. The essentials:
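HEK-CAT1 and vector-control HEK-VC cells took up [3H]-L-arginine (100 μM) for 5 min, with or without drug at 20 or 200 µM; [3H]-L-homoarginine or [3H]-ADMA uptake ran 2.5 min. Net uptake is CAT1 minus VC cells, and inhibition (%) = 100 − (V/V0 × 100). Negative values mean stimulated uptake.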

Assay [5] shares this target. As to the kind of experiment: inhibition of [3H]-L-arginine uptake in HEK-CAT1 cells. It is filed as cell-based. The source says: inhibition of [3H]-L-arginine uptake in HEK-CAT1 cells on CAT1 (cationic amino acid transporter 1, CAT1/SLC7A1) | verapamil inhibited CAT1-mediated uptake of L-arginine, L-homoarginine, and ADMA with IC50 values

Where two headings read alike, the source gives them in different places.

The term inhibition denotes how much of the control response was suppressed. Broadly, the IC50 is the concentration that inhibits the measured activity by half.

T1 sequence (P30825 whole entry): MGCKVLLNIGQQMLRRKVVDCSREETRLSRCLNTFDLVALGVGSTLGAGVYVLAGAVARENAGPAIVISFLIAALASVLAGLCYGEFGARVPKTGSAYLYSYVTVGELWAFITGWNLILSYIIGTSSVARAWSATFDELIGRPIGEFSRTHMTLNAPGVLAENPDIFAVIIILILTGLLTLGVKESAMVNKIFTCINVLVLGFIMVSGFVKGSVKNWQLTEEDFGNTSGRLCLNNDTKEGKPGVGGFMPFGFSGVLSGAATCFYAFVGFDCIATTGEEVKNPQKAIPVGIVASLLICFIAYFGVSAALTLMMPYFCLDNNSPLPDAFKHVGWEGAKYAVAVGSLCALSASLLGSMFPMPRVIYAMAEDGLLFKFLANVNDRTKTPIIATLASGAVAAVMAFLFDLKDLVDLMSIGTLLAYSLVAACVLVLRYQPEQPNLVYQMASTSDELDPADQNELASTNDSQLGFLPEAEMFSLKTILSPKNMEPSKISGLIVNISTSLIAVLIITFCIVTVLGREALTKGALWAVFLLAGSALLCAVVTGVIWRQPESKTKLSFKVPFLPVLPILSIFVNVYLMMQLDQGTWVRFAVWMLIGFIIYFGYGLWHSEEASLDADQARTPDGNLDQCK

Regarding `COc1cc2nc(N3CCN(C(=O)c4ccco4)CC3)nc(N)c2cc1OC` [prazosin], the inhibition at 20 µM in assay [1] is 38.2%; in assay [2], 36.9 ± 4.1%; in assay [4], 9.8 ± 4.3%. Also, the inhibition at 200 µM in assay [2] was 5.1 ± 2.3%; in assay [3], 9.7 ± 6.1%; in assay [4], 9.9 ± 3.1%.

On to `COc1ccc(CCN(C)CCCC(C#N)(c2ccc(OC)c(OC)c2)C(C)C)cc1OC` (centres unmarked) [verapamil], for which the figures for the inhibition at 20 µM in assay [2] and in assay [4] were 24.1 ± 2.3% and 29.3 ± 1.1%, respectively. For the same compound, the inhibition at 200 µM in assay [2] stood at 44.2 ± 4.4%; in assay [4], 27.5 ± 3.7%. The same compound gave an IC50 in assay [5] of 85.3 µM.
